Data published in US12195427B2, “MASP-2 inhibitors and methods of use” (priority 2018, dated 2025).
Counter-ions that a name gives are not always drawn.

Biological target: MASP-2 CCP2-SP (Homo sapiens (Human), UniProt O00187)
Assay: MASP-2 co-crystallization, X-ray crystallography and structure analysis (H-bonds, van der Waals contacts);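 for Ligand-pharmacophore element distance, pharmacophore element C2: distance from averaged pharmacophore element to bound ligand; missing value means element absent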;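 for Ligand-pharmacophore element distance, pharmacophore element C3: distance from averaged pharmacophore element to bound ligand; missing value means element absent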;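 for Ligand-pharmacophore element distance, pharmacophore element C4: distance from averaged pharmacophore element to bound ligand; missing value means element absent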;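 for Ligand-pharmacophore element distance, pharmacophore element C5: distance from averaged pharmacophore element to bound ligand; missing value means element absent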
Set-up: van der Waals contact distance, MASP-2 HIS 483 atom CD2 / van der Waals contact distance, MASP-2 HIS 483 atom NE2 / van der Waals contact distance, SER 654 C to compound atom / van der Waals contact distance, SER 654 O to compound atom / van der Waals contact distance, TRP 655 C to compound atom / van der Waals contact distance, MASP-2 GLY 528 atom CA / van der Waals contact distance TRP 655 atom CZ3 / van der Waals contact distance TRP 655 atom N / van der Waals contact distance TRP 655 atom CE3 / van der Waals contact distance GLY 656 atom C / van der Waals contact distance GLY 656 atom CA / van der Waals contact distance GLY 656 atom O / van der Waals contact distance, MASP-2 TYR 607 atom CD1 / van der Waals contact distance, MASP-2 PRO 606 atom O / d(C3,CA1) / d(CA1,N1)2 / d(H4,O1) / d(H4,O2) / d(O1,O2) / d(CA1,O2) / d(CA6,O1) / d(CA6,O2) / d(CA1,C5) / d(O2,H3) / d(N2,C2) / d(CA5,N2) / d(N2,C4) / d(N2,C6) / d(N2,CA3) / d(N2,O3) / d(O4,H2): unit not given beside the values
Settings: for Ligand-pharmacophore element distance, pharmacophore element C2 / Ligand-pharmacophore element distance, pharmacophore element C3 / Ligand-pharmacophore element distance, pharmacophore element C4 / Ligand-pharmacophore element distance, pharmacophore element C5 / Ligand-pharmacophore element distance, pharmacophore element C6 / Ligand-pharmacophore element distance, pharmacophore element C7 / Ligand-pharmacophore element distance, pharmacophore element CA1 / Ligand-pharmacophore element distance, pharmacophore element CA2 / Ligand-pharmacophore element distance, pharmacophore element CA3 / Ligand-pharmacophore element distance, pharmacophore element CA4 / Ligand-pharmacophore element distance, pharmacophore element CA5 / Ligand-pharmacophore element distance, pharmacophore element CA6: Table A4-1
Procedure, shortened: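 First, CCP2-SP constructs with or without a 6His tag are produced in E. coli. Crystals are then soaked once or twice with inhibitor, cryoprotected in 20% glycerol or frozen directly, and diffracted at synchrotron beamlines. Phasing uses molecular replacement with parts of 1Q3X.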

[1] = Table A5-1 pharmacophore: distance between elements, S2/S1 region
[2] = Table A5-2 pharmacophore distance, S3/S4 region
[3] = Table A7-1, between pharmacophore elements of the bound compound
[4] = Table A7-2, between pharmacophore elements of the bound compound

MASP-2 CCP2-SP, sequence (O00187 445-686): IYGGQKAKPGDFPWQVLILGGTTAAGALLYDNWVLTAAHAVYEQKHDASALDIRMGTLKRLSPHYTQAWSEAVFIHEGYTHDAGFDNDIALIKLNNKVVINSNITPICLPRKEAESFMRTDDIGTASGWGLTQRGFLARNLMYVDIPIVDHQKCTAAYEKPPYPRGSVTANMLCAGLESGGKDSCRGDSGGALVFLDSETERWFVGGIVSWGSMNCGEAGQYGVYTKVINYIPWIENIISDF
MASP-2 CCP2-SP, sequence (O00187 364-432 partner): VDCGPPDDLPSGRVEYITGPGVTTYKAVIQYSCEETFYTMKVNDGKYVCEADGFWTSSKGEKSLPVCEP

## C[C@H](NC(=O)[C@H]1C[C@@H](c2ccccc2)CCN1)C(=O)NCc1cc(Cl)ccc1O.Cl [1078_15]
  Ligand-pharmacophore element distance, pharmacophore element C2: 0.81
  Ligand-pharmacophore element distance, pharmacophore element C3: 0
  Ligand-pharmacophore element distance, pharmacophore element C4: 0
  Ligand-pharmacophore element distance, pharmacophore element C5: 0.43
  Ligand-pharmacophore element distance, pharmacophore element C6: 0
  Ligand-pharmacophore element distance, pharmacophore element C7: 0
  Ligand-pharmacophore element distance, pharmacophore element CA1: 1.56
  Ligand-pharmacophore element distance, pharmacophore element CA2: 0.65
  Ligand-pharmacophore element distance, pharmacophore element CA3: 0
  Ligand-pharmacophore element distance, pharmacophore element CA4: 0
  Ligand-pharmacophore element distance, pharmacophore element CA5: 0
  Ligand-pharmacophore element distance, pharmacophore element CA6: 0
[1]
  d(CA1,C5): 3.13
  d(CA1,O1): 4.59
  d(CA1,O2): 4.59
  d(CA1,O4): 2.74
  d(H4,O1): 2.66
  d(H4,O2): 2.49
  d(O1,O2): 2.93
  d(O4,H2): 0.97
[2]
  d(N2,C2): 1.45
  d(N2,CA2): 5.66
  d(O2,H3): 2.97
  d(O2,N2): 2.84
Table A6-1 pharmacophore angle
  a(C5, CA1, O1): 160.41
  a(CA1, O1, O2): 108.62
  a(CA1, O4, H2): 127.31
  a(O1, CA1, O4): 65.89
  a(O1, O2, H4): 110.90
Table A6-2 pharmacophore angle
  a(O1, O2, H3): 143.22
  a(O1, O2, N2): 147.42
  a(O2, N2, C2): 124.17
  a(O2, N2, CA2): 155.02
[3]
  Pharmacophore torsion angle a(C5, CA1, O1, H4): 19.98
  Pharmacophore torsion angle a(H4, O1, O2, H3): −124.63
  Pharmacophore torsion angle a(H4, O1, O2, N2): −117.88
  Pharmacophore torsion angle a(O1, H4, O2, CA1): −64.96
  Pharmacophore torsion angle a(O1, O2, N2, C2): 139.14
  Pharmacophore torsion angle a(O1, O2, N2, C2)2: 139.34
[4]
  Pharmacophore torsion angle a(O1, O2, N2, CA2): 141.63

## Cc1nc(N)ccc1CNC(=O)[C@H](C)NC(=O)[C@H]1C[C@@H](c2ccccc2)CCN1CCC(=O)O [compound 1411, 3-((2R,4S)-2-(((S)-1-(((6-Amino-2-methylpyridin-3-yl)methyl)amino)-1-oxopropan-2-yl)carbamoyl)-4-phenylpiperidin-1-yl)propanoic acid Trifluoroacetate salt]
Table A1 (H-Bonds), ARG 630 NE
  H-bond distance to MASP-2 ARG 630 atom NE: 2.66
Table A1 (H-Bonds), ASP 627 OD2
  H-bond distance to MASP-2 ASP 627 atom OD2: 3.17
Table A1 (H-Bonds), GLY 656 N
  H-bond distance to MASP-2 GLY 656 atom N: 3.07
Table A1 (H-Bonds), SER 628 O
  H-bond distance to MASP-2 SER 628 atom O: 3.2
Table A1 (H-Bonds), SER 654 O
  H-bond distance to MASP-2 SER 654 atom O: 3.06
Table A1 (H-Bonds), SER 657 O
  H-bond distance to MASP-2 SER 657 atom O: 2.61
Table A2
  van der Waals contact distance, MASP-2 amino acid atom to compound atom: 3.8
Table A2-1
  van der Waals contact distance, MASP-2 HIS 483 atom CD2: 3.51
  van der Waals contact distance, MASP-2 HIS 483 atom NE2: 3.46
Table A2-2
  van der Waals contact distance, MASP-2 GLY 528 atom CA: 3.85
Table A2-3
  van der Waals contact distance, MASP-2 PHE 529 atom CE1: 3.69
Table A2-11
  van der Waals contact distance, VAL 653 CG1 to compound atom: 3.52
Table A2-13, MASP-2 TRP 655 CE3, compound atom in line below
  van der Waals contact distance TRP 655 atom CE3: 3.6
Table A2-13, MASP-2 TRP 655 CZ3
  van der Waals contact distance TRP 655 atom CZ3: 3.57
  Ligand-pharmacophore element distance, pharmacophore element C2: 0.42
  Ligand-pharmacophore element distance, pharmacophore element C3: 0.32
  Ligand-pharmacophore element distance, pharmacophore element C4: 0
  Ligand-pharmacophore element distance, pharmacophore element C5: 0
  Ligand-pharmacophore element distance, pharmacophore element C6: 0
  Ligand-pharmacophore element distance, pharmacophore element C7: 0
  Ligand-pharmacophore element distance, pharmacophore element CA1: 0.71
  Ligand-pharmacophore element distance, pharmacophore element CA2: 0.52
  Ligand-pharmacophore element distance, pharmacophore element CA3: 0
  Ligand-pharmacophore element distance, pharmacophore element CA4: 0
  Ligand-pharmacophore element distance, pharmacophore element CA5: 0
  Ligand-pharmacophore element distance, pharmacophore element CA6: 0
[1]
  d(C3,CA1): 2.87
  d(CA1,N1)2: 1.34
  d(CA1,O1): 4.37
  d(CA1,O2): 4.05
  d(H4,O1): 4.34
  d(H4,O2): 3.90
  d(O1,O2): 3.50
[2]
  d(N2,C2): 1.46
  d(N2,CA2): 5.72
  d(O2,H3): 4.13
  d(O2,N2): 2.68
Table A6-1 pharmacophore angle
  a(C3, CA1, O1): 149.02
  a(CA1, O1, O2): 109.85
  a(O1, O2, H4): 130.04
Table A6-1 pharmacophore angle, Methyl-amino-pyridine compounds
  a(N1, CA1, O1) b): 173.43
Table A6-2 pharmacophore angle
  a(O1, O2, H3): 142.75
  a(O1, O2, N2): 140.47
  a(O2, N2, C2): 130.32
  a(O2, N2, CA2): 155.94
[3]
  Pharmacophore torsion angle a(C3, CA1, O1, H4): 24.51
  Pharmacophore torsion angle a(H4, O1, O2, H3): 55.16
  Pharmacophore torsion angle a(H4, O1, O2, N2): 137.13
  Pharmacophore torsion angle a(N1, CA1, O1, H4): −2.21
  Pharmacophore torsion angle a(O1, H4, O2, CA1): −82.11
  Pharmacophore torsion angle a(O1, O2, N2, C2): 117.46
[4]
  Pharmacophore torsion angle a(O1, O2, N2, CA2): 127.52

## C[C@H](NC(=O)[C@@H](CCc1ccccc1)NCCCc1ccc(O)cc1)C(=O)NCc1ccc(C(=N)N)cc1.Cl.Cl [1145_B]
  Ligand-pharmacophore element distance, pharmacophore element C2: 0
  Ligand-pharmacophore element distance, pharmacophore element C3: 0
  Ligand-pharmacophore element distance, pharmacophore element C4: 0
  Ligand-pharmacophore element distance, pharmacophore element C5: 0
  Ligand-pharmacophore element distance, pharmacophore element C6: 0
  Ligand-pharmacophore element distance, pharmacophore element C7: 0
  Ligand-pharmacophore element distance, pharmacophore element CA1: 0.47
  Ligand-pharmacophore element distance, pharmacophore element CA2: 0.41
  Ligand-pharmacophore element distance, pharmacophore element CA3: 1.22
  Ligand-pharmacophore element distance, pharmacophore element CA4: 0
  Ligand-pharmacophore element distance, pharmacophore element CA5: 0
  Ligand-pharmacophore element distance, pharmacophore element CA6: 0
[1]
  d(CA1,N1): 3.54
  d(CA1,O1): 4.42
  d(CA1,O2): 4.42
  d(H4,O1): 4.89
  d(H4,O2): 4.48
  d(O1,O2): 3.28
[2]
  d(N2,CA2): 5.91
  d(N2,CA3): 5.59
  d(N2,H1): 8.68
  d(N2,O3): 7.97
  d(O2,H3): 5.36
  d(O2,N2): 2.77
Table A6-1 pharmacophore angle
  a(CA1, O1, O2): 111.73
  a(O1, O2, H4): 139.31
Table A6-1 pharmacophore angle, all compounds with protonatable center N1 except Methyl-amino-pyridine
  A(N1, CA1, O1) a): 162.28
Table A6-2 pharmacophore angle
  a(O1, O2, H3): 150.25
  a(O1, O2, N2): 136.24
  a(O2, N2, CA2): 153.28
  a(O2, N2, CA3): 161.48
  a(O2, N2, H1): 168.66
  a(O2, N2, O3): 168.41
[3]
  Pharmacophore torsion angle a(H4, O1, O2, H3): 48.71
  Pharmacophore torsion angle a(H4, O1, O2, N2): 124.15
  Pharmacophore torsion angle a(N1, CA1, O2, H4): −128.41
  Pharmacophore torsion angle a(O1, H4, O2, CA1): −59.90
[4]
  Pharmacophore torsion angle a(O1, O2, N2, CA2): 140.87
  Pharmacophore torsion angle a(O1, O2, N2, CA3): −15.65
  Pharmacophore torsion angle a(O1, O2, N2, H1): −15.97
  Pharmacophore torsion angle a(O1, O2, N2, O3): −10.98
